Here are results for 2 compounds from patent US12427140B2, “4-[5-[(rac)-1-[5-(3-chlorophenyl)-3-isoxazolyl]ethoxy]-4-methyl-4H-1,2,4-triazol-3-yl]pyridine for use in prevention and/or treatment of pain in an animal” (priority 2019, dated 2025).

Data set [1] can be described thus: Adverse effect on kidneys. Particulars: in vivo.
A short description of data set [2]: Dissolution of TT001 in I.V. formulation vehicle. Format: physicochemical. As to conditions: 0.1 to 10 mg/ml in 40% w/v HPβCD solution in water for injection; a couple of hours for complete dissolution. Here is the method: Formulation Method for the Preparation of TT001 for I.V. Dosing, 0.1 to 10 mg/ml
The formulation method is applicable at concentrations in formulation between 0.1 and 10 mg/mL corresponding to 0.262 and 26.2 μmol/mL
Preparation of 40% w/v HPβCD solution in water for injection
Excipients Hydroxypropyl-β-cyclodextrin, Kleptose, Roquette (HPβCD) 400 mg (40% w/v)
Water for injection to 1 ml (1.13 g)
Preparation of TT001 I.V. formulations between 0.1 and 10 mg/ml
Vehicle (40% w/v HPβCD solution in water for injection) to 1 ml (1.13 g)

For data set [3] the following is noted: cited from earlier work.
In data set [4] the test system is pain in dogs with chronic osteoarthritis. Particulars: cited from earlier work.

In the case of `C[C@@H](Oc1nnc(-c2ccncc2)n1C)c1cc(-c2cccc(Cl)c2)on1` [TT001, 4-[5-[(1R)-1-[5-(3-Chlorophenyl)-3-isoxazolyl]ethoxy]-4-methyl-4H-1,2,4-triazol-3-yl]pyridine], in data set [1], the “adverse effect on kidneys” value is listed as “not shown any adverse effect on kidneys”. For the same compound, the dissolution entry in data set [2] was “moderate”. In data set [3] (high dose of 13 mg (about 0.19 mg/kg), 2 to 3 hours after food-intake), the “effect on TLESR/reflux” value is recorded as “some effect”. For the same compound, the side effects result in data set [3] (high doses of 13 mg) was “Some serious side effects”. In addition, the effect on reflux entry in data set [3] (prior to food intake and at 1-2 hours after food intake) is on record as “no significant effect”.
Take `COc1cccc(C2(O)CCCCC2CN(C)C)c1` (stereo not drawn) [Tramadol]: the “pain killer effect in dogs” value in data set [4] is listed as “do not occur”.
